Assay results as given in the supplement of paper PMC6965134.
± gives the standard deviation of the averaged measurements.

Test: TIMS collisional cross section (CCS, N2) of the lipid ion; higher = larger ion cross section
Conditions: ionization mode: positive, one isomer drawn

Row | TIMS collisional cross section (sample type: HeLa) [Å²] | TIMS collisional cross section (sample type: Liver) [Å²] | TIMS collisional cross section (sample type: plasma) [Å²] | Compound
1 | 286.4 | 286.2 |  | CCCCCCCCCCCCCCCCCC(=O)OC[C@H](COP(=O)(O)OCCN)OC(=O)CCCCCCCCCCCCCCCCC [PE 18:0_18:0] (ion (formula + adduct): [C41H82NO8P+Na] 1+)
2 | 282.2 |  |  | CCCCCCCC/C=C\CCCCCCCC(=O)O[C@H](COC(=O)CCCCCCCCCCCCCCCCC)COP(=O)(O)OCCN [PE 18:0_18:1] (ion (formula + adduct): [C41H80NO8P+H] 1+)
3 |  | 279.7 | 279.8 | CCCCC/C=C\C/C=C\CCCCCCCC(=O)O[C@H](COC(=O)CCCCCCCCCCCCCCCCC)COP(=O)(O)OCCN [PE 18:0_18:2] (ion (formula + adduct): [C41H78NO8P+H] 1+)
4 |  | 278.7 |  | CCCCC/C=C\C/C=C\C/C=C\CCCCC(=O)O[C@H](COC(=O)CCCCCCCCCCCCCCCCC)COP(=O)(O)OCCN [PE 18:0_18:3@] (ion (formula + adduct): [C41H76NO8P+H] 1+)
5 |  | 289.3 |  | CCCCCCCC/C=C\CCCCCCCCCC(=O)O[C@H](COC(=O)CCCCCCCCCCCCCCCCC)COP(=O)(O)OCCN [PE 18:0_20:1] (ion (formula + adduct): [C43H84NO8P+H] 1+)
6 | 284.1 | 283.9 ± 0.37 |  | CCCCC/C=C\C/C=C\C/C=C\C/C=C\CCCC(=O)O[C@H](COC(=O)CCCCCCCCCCCCCCCCC)COP(=O)(O)OCCN [PE 18:0_20:4@] (ion (formula + adduct): [C43H78NO8P+H] 1+)
7 |  | 284.15 ± 0.49 | 283.5 | CCCCC/C=C\C/C=C\C/C=C\C/C=C\CCCC(=O)O[C@H](COC(=O)CCCCCCCCCCCCCCCCC)COP(=O)(O)OCCN [PE 18:0_20:4] (ion (formula + adduct): [C43H78NO8P+H] 1+)
8 | 285.5 | 285.6 |  | CC/C=C\C/C=C\C/C=C\C/C=C\C/C=C\C/C=C\CCC(=O)O[C@H](COC(=O)CCCCCCCCCCCCCCCCC)COP(=O)(O)OCCN [PE 18:0_22:6] (ion (formula + adduct): [C45H78NO8P+H] 1+)
9 | 286.2 |  |  | CCCCCCCC/C=C\CCCCCCCCCC(=O)O[C@H](COC(=O)CCCCCCC/C=C\CCCCCCCC)COP(=O)(O)OCCN [PE 18:1@_20:1] (ion (formula + adduct): [C43H82NO8P+H] 1+)
10 |  | 283.3 |  | CCCCC/C=C\C/C=C\CCCCCCCCCC(=O)O[C@H](COC(=O)CCCCCCC/C=C\CCCCCCCC)COP(=O)(O)OCCN [PE 18:1@_20:2] (ion (formula + adduct): [C43H80NO8P+H] 1+)
11 | 279 |  |  | CCCCCCCC/C=C\CCCCCCCC(=O)OC[C@H](COP(=O)(O)OCCN)OC(=O)CCCCCCCCCCCCCCCC [PE 18:1_17:0@] (ion (formula + adduct): [C40H78NO8P+H] 1+)
12 | 279.2 ± 0.71 |  |  | CCCCCCCC/C=C/CCCCCCCC(=O)OC[C@H](COP(=O)(O)OCCN)OC(=O)CCCCCCC/C=C/CCCCCCCC [PE 18:1_18:1] (ion (formula + adduct): [C41H78NO8P+H] 1+)
13 | 279.7 |  | 280.6 | CCCCCCCC/C=C/CCCCCCCC(=O)OC[C@H](COP(=O)(O)OCCN)OC(=O)CCCCCCC/C=C/CCCCCCCC [PE 18:1_18:1] (ion (formula + adduct): [C41H78NO8P+Na] 1+)
14 |  | 290.8 |  | CCCCCCCC/C=C\CCCCCCCC(=O)OC[C@H](COP(=O)(O)OCCN(C)C)OC(=O)CCCCCCC/C=C\CCCCCCCC [PE 18:1_18:1] (ion (formula + adduct): [C43H82NO8P+Na] 1+)
15 | 277.9 |  | 275.8 | CCCCC/C=C\C/C=C\CCCCCCCC(=O)O[C@H](COC(=O)CCCCCCC/C=C\CCCCCCCC)COP(=O)(O)OCCN [PE 18:1_18:2@] (ion (formula + adduct): [C41H76NO8P+H] 1+)
16 | 275.7 | 276.1 |  | CCCCC/C=C\C/C=C\CCCCCCCC(=O)O[C@H](COC(=O)CCCCCCC/C=C\CCCCCCCC)COP(=O)(O)OCCN [PE 18:1_18:2] (ion (formula + adduct): [C41H76NO8P+H] 1+)
17 | 276 | 277.2 |  | CCCCC/C=C\C/C=C\CCCCCCCC(=O)O[C@H](COC(=O)CCCCCCC/C=C\CCCCCCCC)COP(=O)(O)OCCN [PE 18:1_18:2] (ion (formula + adduct): [C41H76NO8P+Na] 1+)
18 |  | 285.5 |  | CCCCCCCC/C=C\CCCCCCCCCC(=O)O[C@H](COC(=O)CCCCCCC/C=C\CCCCCCCC)COP(=O)(O)OCCN [PE 18:1_20:1@] (ion (formula + adduct): [C43H82NO8P+H] 1+)
19 | 292.4 |  |  | CCCCCCCC/C=C\CCCCCCCC(=O)OC[C@H](COP(=O)(O)OCCN)OC(=O)CCCCCCCCC/C=C\CCCCCCCCCC [PE 18:1_22:1] (ion (formula + adduct): [C45H86NO8P+H] 1+)
20 |  | 291.5 |  | CCCCC/C=C\C/C=C\CCCCCCCCCCCC(=O)O[C@H](COC(=O)CCCCCCC/C=C\CCCCCCCC)COP(=O)(O)OCCN [PE 18:1_22:2@] (ion (formula + adduct): [C45H84NO8P+H] 1+)
21 | 270 |  |  | CCCCC/C=C\C/C=C\CCCCCCCC(=O)OC[C@H](COP(=O)(O)OCCN)OC(=O)CCCCCCC/C=C\CCCCCC [PE 18:2@_16:1] (ion (formula + adduct): [C39H72NO8P+H] 1+)
22 |  | 277.2 |  | CC/C=C\C/C=C\C/C=C\C/C=C\C/C=C\CCCC(=O)O[C@H](COC(=O)CCCCCCC/C=C\C/C=C\CCCCC)COP(=O)(O)OCCN [PE 18:2@_20:5] (ion (formula + adduct): [C43H72NO8P+H] 1+)
23 |  | 268.7 |  | CCCCC/C=C\C/C=C\CCCCCCCC(=O)OC[C@H](COP(=O)(O)OCCN)OC(=O)CCCCCCC/C=C\CCCCCC [PE 18:2_16:1] (ion (formula + adduct): [C39H72NO8P+H] 1+)
24 |  | 273.1 |  | CCCCC/C=C\C/C=C\CCCCCCCC(=O)OC[C@H](COP(=O)(O)OCCN)OC(=O)CCCCCCC/C=C\C/C=C\CCCCC [PE 18:2_18:2] (ion (formula + adduct): [C41H74NO8P+H] 1+)
25 |  | 270.2 |  | CCCCC/C=C\C/C=C\C/C=C\CCCCC(=O)O[C@H](COC(=O)CCCCCCC/C=C\C/C=C\CCCCC)COP(=O)(O)OCCN [PE 18:2_18:3] (ion (formula + adduct): [C41H72NO8P+H] 1+)
26 |  | 284.2 |  | CCCCC/C=C\C/C=C\CCCCCCCC(=O)OC[C@H](COP(=O)(O)OCCN)OC(=O)CCCCCCCCC/C=C\CCCCCCCC [PE 18:2_20:1] (ion (formula + adduct): [C43H80NO8P+Na] 1+)
27 | 273.8 | 273.7 |  | CCCCC/C=C\C/C=C\C/C=C\C/C=C\CCCC(=O)O[C@H](COC(=O)CCCC/C=C\C/C=C\C/C=C\CCCCC)COP(=O)(O)OCCN [PE 18:3_20:4@] (ion (formula + adduct): [C43H72NO8P+H] 1+)
